Assays:
Phosphodiesterase 6 = experiment: Inhibition of PDE6; format: protein assay, Homo sapiens
Phosphodiesterase 4 = Phosphodiesterase 4 (Homo sapiens, UniProt P27815+Q08499+Q07343+Q08493); experiment: Inhibition of PDE4; format: protein assay
[1] = target: cGMP-specific 3',5'-cyclic phosphodiesterase (Canis lupus familiaris, UniProt O77746); experiment: Inhibition of PDE5; design: species or system Homo sapiens
Phosphodiesterase 3 = Phosphodiesterase 3 (Homo sapiens, UniProt Q14432+Q13370); experiment: Inhibition of PDE3; format: protein assay
[2] = target: cGMP-dependent 3',5'-cyclic phosphodiesterase (Homo sapiens, UniProt O00408); experiment: Inhibition of PDE2
Chain of cGMP-dependent 3',5'-cyclic phosphodiesterase (O00408 whole entry): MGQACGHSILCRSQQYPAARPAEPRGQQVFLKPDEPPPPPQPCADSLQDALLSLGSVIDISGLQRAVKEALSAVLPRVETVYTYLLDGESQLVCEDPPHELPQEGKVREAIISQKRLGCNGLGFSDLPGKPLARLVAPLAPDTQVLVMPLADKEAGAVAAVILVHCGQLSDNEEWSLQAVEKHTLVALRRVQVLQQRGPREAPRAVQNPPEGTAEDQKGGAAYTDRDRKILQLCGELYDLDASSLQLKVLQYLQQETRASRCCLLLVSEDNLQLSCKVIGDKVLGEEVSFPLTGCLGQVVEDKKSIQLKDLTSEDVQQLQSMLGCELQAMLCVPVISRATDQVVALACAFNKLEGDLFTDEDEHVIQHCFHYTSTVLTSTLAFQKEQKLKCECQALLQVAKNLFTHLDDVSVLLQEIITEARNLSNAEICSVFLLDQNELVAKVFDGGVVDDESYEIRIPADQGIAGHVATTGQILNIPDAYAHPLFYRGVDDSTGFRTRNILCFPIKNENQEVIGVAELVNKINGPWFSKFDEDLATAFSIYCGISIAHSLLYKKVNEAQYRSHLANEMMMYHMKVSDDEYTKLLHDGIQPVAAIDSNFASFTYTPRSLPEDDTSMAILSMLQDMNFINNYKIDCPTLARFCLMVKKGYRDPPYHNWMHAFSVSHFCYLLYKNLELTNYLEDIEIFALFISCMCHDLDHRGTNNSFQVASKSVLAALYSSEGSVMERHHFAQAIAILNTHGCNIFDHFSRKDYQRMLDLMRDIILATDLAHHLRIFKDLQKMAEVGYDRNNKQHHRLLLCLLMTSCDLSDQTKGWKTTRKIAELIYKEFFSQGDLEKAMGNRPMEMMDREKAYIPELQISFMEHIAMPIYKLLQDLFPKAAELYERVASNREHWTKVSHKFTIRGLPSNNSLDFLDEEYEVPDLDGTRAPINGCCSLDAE

[3] = target: cAMP and cAMP-inhibited cGMP 3',5'-cyclic phosphodiesterase 10A (Homo sapiens, UniProt Q9Y233); experiment: Inhibition of human recombinant PDE10A-catalyzed cAMP hydrolysis
Chain of cAMP and cAMP-inhibited cGMP 3',5'-cyclic phosphodiesterase 10A (Q9Y233 whole entry): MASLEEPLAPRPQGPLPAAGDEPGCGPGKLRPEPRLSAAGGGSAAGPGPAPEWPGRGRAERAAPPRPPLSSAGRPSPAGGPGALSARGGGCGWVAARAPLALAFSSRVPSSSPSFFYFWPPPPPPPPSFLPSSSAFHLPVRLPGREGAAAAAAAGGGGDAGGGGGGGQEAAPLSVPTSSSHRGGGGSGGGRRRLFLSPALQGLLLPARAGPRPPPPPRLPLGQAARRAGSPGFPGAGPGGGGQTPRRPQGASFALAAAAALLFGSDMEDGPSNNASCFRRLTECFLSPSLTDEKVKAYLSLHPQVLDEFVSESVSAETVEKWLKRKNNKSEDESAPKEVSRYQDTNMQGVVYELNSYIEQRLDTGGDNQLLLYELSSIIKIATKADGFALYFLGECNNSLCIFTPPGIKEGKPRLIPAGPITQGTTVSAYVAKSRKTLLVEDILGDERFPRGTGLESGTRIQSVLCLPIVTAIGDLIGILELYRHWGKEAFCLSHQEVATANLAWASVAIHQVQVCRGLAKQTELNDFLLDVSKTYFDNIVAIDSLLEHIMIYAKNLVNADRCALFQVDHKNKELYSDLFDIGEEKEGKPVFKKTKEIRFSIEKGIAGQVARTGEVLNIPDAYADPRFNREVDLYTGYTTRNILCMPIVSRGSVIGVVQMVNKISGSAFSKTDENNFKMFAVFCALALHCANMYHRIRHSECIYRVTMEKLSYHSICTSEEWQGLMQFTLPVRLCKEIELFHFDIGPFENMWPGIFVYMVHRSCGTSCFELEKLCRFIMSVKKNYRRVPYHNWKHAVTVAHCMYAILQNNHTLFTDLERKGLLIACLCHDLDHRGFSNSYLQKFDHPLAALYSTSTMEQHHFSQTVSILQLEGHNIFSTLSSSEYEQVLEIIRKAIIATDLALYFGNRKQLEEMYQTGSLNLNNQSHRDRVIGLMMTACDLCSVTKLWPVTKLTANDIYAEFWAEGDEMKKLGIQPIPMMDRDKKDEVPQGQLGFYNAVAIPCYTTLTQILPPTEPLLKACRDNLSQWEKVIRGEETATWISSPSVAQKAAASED

Homo sapiens = species on record: Homo sapiens; experiment: Selectivity ratio of IC50 PDE2 to IC50 for human recombinant PDE10A
Rattus norvegicus [4] = experiment: Antipsychotic activity in po dosed rat assessed as reduction of MK801-induced stereotyped sniffing; format: functional; design: Activity: scale not given: the % may be the effect or the level left; settings: for minimal effective dose: Rattus norvegicus, po, read-out: MED
Rattus norvegicus [5] = experiment: Antipsychotic activity in po dosed rat assessed as reduction of MK801-induced hyperactivity; format: functional; design: Activity: scale not given: the % may be the effect or the level left; settings: for minimal effective dose: Rattus norvegicus, po, read-out: MED
[6] = AUC in rat plasma at 2 mg/kg, iv and 10 mg/kg, po; format: ADME, organism-based
[7] = Clearance in rat at 2 mg/kg, iv and 10 mg/kg, po; format: ADME, organism-based; settings: in vivo
[8] = Elimination half life in rat at 2 mg/kg, iv and 10 mg/kg, po; format: ADME, organism-based; settings: in vivo, read-out: beta t1/2 (converted)
[9] = Volume of distribution at steady state in rat at 2 mg/kg, iv and 10 mg/kg, po; format: ADME, organism-based; settings: in vivo, read-out: Vdss
[10] = AUC in rat brain at 2 mg/kg, iv and 10 mg/kg, po; format: ADME, organism-based
[11] = Oral bioavailability in rat at 10 mg/kg; format: ADME, organism-based; settings: in vivo

SMILES | IC50 (Phosphodiesterase 6) | IC50 (Phosphodiesterase 4) | IC50 [1] | IC50 (Phosphodiesterase 3) | IC50 [2] | IC50 [3] | other results
COc1ccccc1-c1nc(C)c2nnc3c(OC)cc(F)cc3n12 | > 10 µM | > 10 µM | > 10 µM | > 10 µM | – | – | –
COc1ccc2nnc3c(C)nc(-c4ccccc4Cl)n3c2n1 | 0.435 µM | > 10 µM | 1.68 µM | 1.24 µM | 0.0043 µM | 0.0131 µM | –
COc1cccc2c1nnc1c(C)nc(-c3ccccc3C)n12 | 1.98 µM | 0.176 µM | 3.67 µM | > 10 µM | – | – | Ratio IC50 (Homo sapiens): 60
COc1ccc2nnc3c(C)nc(-c4ccccc4C)n3c2n1 | 1.57 µM | > 10 µM | 3.41 µM | > 5 µM | – | 0.0476 µM | –
COc1cc(C(F)(F)F)cc2c1nnc1c(C)nc(-c3cnccc3C)n12 | 5.25 µM | > 10.001 µM | > 10 µM | > 10 µM | 0.864 µM | 0.00511 µM | –
COc1cc(C(F)(F)F)cc2c1nnc1c(C)nc(-c3cccc(F)c3C)n12 | 1.26 µM | > 5 µM | 2.13 µM | > 5 µM | 0.722 µM | 0.00185 µM | –
COc1ccc2nnc3c(C)nc(-c4ccc(Cl)cc4Cl)n3c2n1 | > 1 µM | > 1 µM | > 1 µM | > 1 µM | – | – | –
COc1cc(N2CCOCC2)cc2c1nnc1c(C)nc(-c3ccncc3C)n12 | 3.12 µM | > 10 µM | 5.38 µM | > 10 µM | 0.00437 µM | – | –
COc1ccc2nnc3c(C)nc(-c4cc(Cl)ccc4Cl)n3c2n1 | 0.829 µM | 4.41 µM | 1.15 µM | 0.75 µM | 0.00206 µM | 0.0531 µM | –
COc1ccc2nnc3c(C)nc(-c4cc(OC(C)C)ccc4F)n3c2n1 | – | – | – | – | 0.102 µM | 2.43 µM | –
COc1cc(N2CCOCC2)cc2c1nnc1c(C)nc(-c3ccccc3Cl)n12 | 0.276 µM | 2.68 µM | 0.603 µM | > 10 µM | – | – | –
COc1cc(F)cc2c1nnc1c(C)nc(-c3cccc(F)c3C)n12 | > 1 µM | > 1 µM | > 1 µM | > 1 µM | – | – | –
COc1cc(OC)c2nnc3c(C)nc(-c4cccnc4C)n3c2c1 | 0.493 µM | > 10 µM | 1.43 µM | > 10 µM | – | – | AUC [6]: 21300 ng·h/mL; Activity (Rattus norvegicus [4]): 71.3%; minimal effective dose (Rattus norvegicus [4]): 0.25 mg/kg; clearance [7]: 4 mL/min/kg; Activity (Rattus norvegicus [5]): 90.2%; minimal effective dose (Rattus norvegicus [5]): 0.25 mg/kg; half-life [8]: 2 h; Vd [9]: 0.4 L/kg; AUC [10]: 6590 ng·h/mL; bioavailability [11]: 100%
COc1cc(F)c2nnc3c(C)nc(-c4ccccc4OC)n3c2c1 | > 1 µM | > 1 µM | > 1 µM | > 1 µM | – | – | Ratio IC50 (Homo sapiens): > 400
COc1ccc2nnc3c(C)nc(-c4ccc(F)cc4Cl)n3c2n1 | 0.462 µM | > 1 µM | > 1 µM | > 1 µM | – | – | –
COc1ccc(F)c(-c2nc(C)c3nnc4ccc(OC)nc4n23)c1 | 0.734 µM | 4.82 µM | 0.702 µM | 1.82 µM | – | – | –
COc1cc(OC)c2nnc3c(C)nc(-c4ccccc4C(F)(F)F)n3c2c1 | > 1 µM | > 1 µM | > 1 µM | > 1 µM | 0.522 µM | 0.00335 µM | –
COc1cc(F)cc2c1nnc1c(C)nc(-c3cccnc3C)n12 | 2.83 µM | > 10 µM | > 5 µM | > 10 µM | 1.27 µM | 0.00784 µM | –
COc1cccc(-c2nc(C)c3nnc4c(OC)cc(F)cc4n23)c1 | > 1 µM | > 1 µM | > 1 µM | > 1 µM | 2 µM | – | –
COc1cc(N2CCOCC2)cc2c1nnc1c(C)nc(-c3ccccc3C)n12 | 0.693 µM | 2.92 µM | 0.651 µM | > 10 µM | – | – | –

The next lines start with results.

IC50 (Phosphodiesterase 6) | IC50 (Phosphodiesterase 4) | IC50 [1] | IC50 (Phosphodiesterase 3) | IC50 [2] | IC50 [3] | SMILES | other results
3.88 µM | 2.46 µM | 4.76 µM | > 10 µM | – | – | COc1cc(F)cc2c1nnc1c(C)nc(-c3sc(C)nc3C)n12 | –
> 10 µM | > 10 µM | > 10 µM | > 10 µM | 1.22 µM | 0.0072 µM | COc1cc(F)cc2c1nnc1c(C)nc(-c3ccncc3C)n12 | –
1.15 µM | > 10 µM | 34.1 µM | 7.26 µM | 0.0132 µM | 0.0459 µM | COc1ccc2nnc3c(C)nc(-c4ccc(F)cc4C)n3c2n1 | –
0.07315 µM | 1.91 µM | 0.436 µM | > 5 µM | 0.0303 µM | – | COc1cc(OC)c2nnc3c(C)nc(-c4ccccc4Cl)n3c2c1 | Activity (Rattus norvegicus [4]): 55.7%; minimal effective dose (Rattus norvegicus [4]): 0.5 mg/kg; Activity (Rattus norvegicus [5]): 70.3%; minimal effective dose (Rattus norvegicus [5]): 0.5 mg/kg
> 10 µM | > 10 µM | > 10 µM | > 10 µM | – | – | COc1cc(F)cc2c1nnc1c(C)nc(-c3cnccc3C)n12 | –
> 5 µM | > 10 µM | > 10 µM | > 10 µM | – | – | COc1cc(F)cc2c1nnc1c(C)nc(-c3c(C)nn(C)c3C)n12 | –
1.23 µM | 3.67 µM | 2.78 µM | 2.25 µM | – | – | COc1cc(F)c2nnc3c(C)nc(-c4sccc4C)n3c2c1 | –
0.909 µM | > 10 µM | 4.02 µM | > 10 µM | 0.944 µM | 0.007 µM | COc1cc(OC(F)F)cc2c1nnc1c(C)nc(-c3ccncc3C)n12 | –
1.06 µM | 0.0708 µM | 3.06 µM | > 10 µM | – | – | COc1cccc2c1nnc1c(C)nc(-c3ccccc3Cl)n12 | –
3.27 µM | 7.72 µM | 3.6 µM | > 10 µM | – | – | COc1cc(F)cc2c1nnc1c(C)nc(-c3sccc3C)n12 | –
0.349 µM | > 10 µM | 1.11 µM | > 10 µM | 0.0959 µM | 0.00513 µM | COc1cc(OC)c2nnc3c(C)nc(-c4ccccc4C)n3c2c1 | –
1.822 µM | > 10 µM | 5.07 µM | > 10 µM | – | – | COc1cc(OC)c2nnc3c(C)nc(-c4cnccc4C)n3c2c1 | AUC [6]: 8790 ng·h/mL; Activity (Rattus norvegicus [4]): 69.8%; minimal effective dose (Rattus norvegicus [4]): 1 mg/kg; clearance [7]: 14 mL/min/kg; Activity (Rattus norvegicus [5]): 79.9%; minimal effective dose (Rattus norvegicus [5]): 1 mg/kg; half-life [8]: 0.8 h; Vd [9]: 0.5 L/kg; AUC [10]: 3000 ng·h/mL; bioavailability [11]: 100%

Source: ChEMBL document CHEMBL2069169, “Novel triazines as potent and selective phosphodiesterase 10A inhibitors” (Bioorg Med Chem Lett, 2012)
